Assay results published in EP4644383A1 (Jiangsu Yahong Meditech Co., Ltd., priority 2022, dated 2024).
Where two headings read alike, the source gives them in different places.

How the values were obtained:
[1] = system: RT112-FGFR3-V555M cells; experiment: Inhibition of proliferation activity of RT112-FGFR3-V555M cells (CellTiter-Glo); type: cell-based; details: read-out: IC50 (nM) RT112-FGFR3-V555M
Procedure: The present experiment used CellTiter-Glo® Luminescent Cell Viability Assay (Promega: G7573) kit, which was a homogeneous cell viability detection method and determined the cell viability of cultured cells by quantifying ATP. • ① RT112-FGFR3-V555M cells were cultured in MEM complete medium (Gibco: 51200038) (10% FBS (Gibco: 10091-148)+1% Pen Strep (Gibco: 15140122)+1% NEAA (Gibco: 11140050)) under the condition of 37°C and 5% CO2. • (2) The cells in logarithmic growth phase were harvested and counted using a […]. The trypan blue exclusion method was used to detect cell viability to ensure the cell viability was above 90%. • ③ The cell density was adjusted using MEM complete medium, and then, the cells were seeded into a 96-well cell culture plate at 90 µL/well with a total of 5000 cells. • ④ The 96-well plate with the cells was placed under the condition of 37°C and 5% CO2 to be cultured for 24 hours. • ⑤ 24 hours later, a 10-fold drug solution was prepared starting from a maximum drug concentration of 10 µM and 4-fold serially diluted into10 concentrations. Then, 10 µL of each of the serially diluted compounds was transferred to the corresponding experimental wells of a 96-well cell plate, with two replicates for each drug concentration. • ⑥ The 96-well plate with the cells that had been treated with the drugs was placed under the condition of 37°C and 5% CO2 to be further cultured for 72 hours, and then analyzed by CTG. • ⑦ The CTG reagent was melted and the cell plate was equilibrated to room temperature for 30 minutes. • ⑧ 50 µL of the CTG solution was added to each well. • ⑨ The cell plate was shaken on an orbital shaker for 5 minutes to lyse the cells. • ⑩ The cell plate was placed at room temperature for 20 minutes to stabilize the luminescence signal. The luminescence values were read to collect the data. • ⑪ The data were analyzed using XLFit excel plugin version 5.5.0.5, and fitted with non-linear S-curve regression to obtain the dose-response curves and thus calculate the IC50 values. Y = Bottom + (Top-Bottom)/((1+(IC50/X))^(∧) HillSlope [formula]
"Top" refers to the maximum response, "Bottom" refers to the minimum response, and "HillSlope" refers to the slope of the curve.
"Max" represents the average value of the cell+DMSO control, and "Min" represents the average value of the medium control+DMSO.

[2] = molecular target: T1, FGFR3 (Homo sapiens, UniProt P22607); experiment: FGFR3 kinase activity inhibition assay (LanthaScreen TR-FRET); type: biochemical; details: for Selectivity (X) FGFR1/FGFR3: ratio of IC50 FGFR1/FGFR3, selectivity towards FGFR3; for Selectivity (X) FGFR2/FGFR3: ratio of IC50 FGFR2/FGFR3, selectivity towards FGFR3; for Selectivity (X) FGFR4/FGFR3: ratio of IC50 FGFR4/FGFR3, selectivity towards FGFR3
T1 construct: FGFR3's cytoplasmic domain [436-806 (terminal) amino acids]; purchased Carna 08-135
T1 sequence (P22607 436-806): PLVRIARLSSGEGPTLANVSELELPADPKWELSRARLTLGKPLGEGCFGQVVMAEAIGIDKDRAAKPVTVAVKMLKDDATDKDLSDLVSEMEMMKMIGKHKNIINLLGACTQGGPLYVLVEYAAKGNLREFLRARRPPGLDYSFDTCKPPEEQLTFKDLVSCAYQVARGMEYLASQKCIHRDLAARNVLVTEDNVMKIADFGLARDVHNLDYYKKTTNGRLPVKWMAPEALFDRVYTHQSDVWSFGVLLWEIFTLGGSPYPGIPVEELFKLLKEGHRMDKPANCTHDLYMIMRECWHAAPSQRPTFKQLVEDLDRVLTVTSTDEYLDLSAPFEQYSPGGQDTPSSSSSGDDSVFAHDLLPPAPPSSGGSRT
Procedure, shortened: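 Read-out is TR-FRET, with the 520 nm/495 nm emission ratio normalised to DMSO (max) and enzyme-free (min) controls. Enzyme was the FGFR3 cytoplasmic domain, residues 436-806. EDTA (10 mM) stopped the reaction, followed by 60 min at 22 °C before reading.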

[3] = FGFR3 kinase, TR-FRET, read-out: IC50 (nM) FGFR3
[4] = RT112-FGFR3-V555M cells, 72 hours, CTG

Row | IC50 [2, 3] [nM] | Selectivity (X) FGFR1/FGFR3 [2] | Selectivity (X) FGFR2/FGFR3 [2] | Selectivity (X) FGFR4/FGFR3 [2] | Structure (SMILES) | IC50 ([1]; 72 h) [nM] | IC50 [2] [nM] | IC50 [1, 4] [nM]
1 |  |  |  |  | C[C@@H](Oc1ccc2[nH]nc(-c3ccc(S(C)(=N)=O)nc3)c2c1)c1c(Cl)cncc1Cl (stereo partly drawn) [Comparative Example 85, (5-(5-((R)-1-(3,5-dichloropyridin-4-yl)ethoxy)-1H-indazol-3-yl)pyridin-2-yl)(imino)(methyl)-sulfanone, reference compound] | 334 |  | 
2 | 1 to 10 | B (B represents 20 ≤ multiple X<50) | A (A represents 1 ≤ multiple X<20) | C (C represents 50 ≤ multiple X<100) | C[C@@H](Oc1cc(F)c2[nH]nc(-c3cnn(CCN4CCOCC4)c3)c2c1)c1c(Cl)cncc1Cl [Example 12, (R)-4-(2-(4-(5-(1-(3,5-dichloropyridin-4-yl)ethoxy)-7-fluoro-1H-indazol-3-yl)-1H-pyrazol-1-yl)ethyl)morph oline] |  |  | 
3 | < 1 | A (A represents 1 ≤ multiple X<20) | A (A represents 1 ≤ multiple X<20) | A (A represents 1 ≤ multiple X<20) | C[C@@H](Oc1ccc2[nH]nc(-c3cnn(C)c3)c2n1)c1c(Cl)cncc1Cl [Example 29, (R)-5-(1-(3,5-dichloropyridin-4-yl)ethoxy)-3-(1-methyl-1H-pyrazol-4-yl)-1H-pyrazolo[4,3-b]pyridine] |  |  | 
4 | < 1 | A (A represents 1 ≤ multiple X<20) |  |  | C[C@@H](Oc1ccc2[nH]nc(-c3cnn(CCN4CCN(C)C(=O)C4)c3)c2n1)c1c(Cl)cncc1Cl [Example 54, (R)-4-(2-(4-(5-(1-(3,5-dichloropyridin-4-yl)ethoxy)-1H-pyrazolo[4,3-b]pyridin-3-yl)-1H-pyrazol-1-yl)ethyl)-1-methylpiperazin-2-one] |  |  | 
5 | < 1 | A (A represents 1 ≤ multiple X<20) |  |  | C[C@@H](Oc1ccc2[nH]nc(-c3cnn(CCN4CCS(=O)(=O)CC4)c3)c2n1)c1c(Cl)cncc1Cl [Example 55, (R)-4-(2-(4-(5-(1-(3,5-dichloropyridin-4-yl)ethoxy)-1H-pyrazolo[4,3-b]pyridin-3-yl)-1H-pyrazol-1-yl)ethyl)thiomorph oline 1,1-dioxide] |  |  | 
6 | 1 to 10 | A (A represents 1 ≤ multiple X<20) | A (A represents 1 ≤ multiple X<20) | C (C represents 50 ≤ multiple X<100) | CC(Oc1ccc2[nH]nc(-c3cnn(C)c3)c2c1)c1cccc2ncccc12 (stereo not shown) [Example 88, 5-(1-((3-(1-methyl-1H-pyrazol-4-yl)-1H-indazol-5-yl)oxy)ethyl)quin oline] |  |  | 
7 | < 1 | A (A represents 1 ≤ multiple X<20) | A (A represents 1 ≤ multiple X<20) | A (A represents 1 ≤ multiple X<20) | CC(Oc1ccc2[nH]nc(-c3cnn(C)c3)c2c1)c1cccc2nccnc12 (stereo not shown) [Example 92, 5-(1-((3-(1-methyl-1H-pyrazol-4-yl)-1H-indazol-5-yl)oxy)ethyl)quin oxaline] |  |  | 
8 | 1 to 10 | A (A represents 1 ≤ multiple X<20) |  |  | CC(Oc1ccc2[nH]nc(-c3cnn(C)c3)c2c1)c1cccn2ncnc12 (stereo not shown) [Example 101, 8-(1-((3-(1-methyl-1H-pyrazol-4-yl)-1H-indazol-5-yl)oxy)ethyl)-[1,2,4]triazolo[1,5-a]pyridine] |  |  | 
9 | < 1 | C (C represents 50 ≤ multiple X<100) | A (A represents 1 ≤ multiple X<20) | C (C represents 50 ≤ multiple X<100) | CC(Oc1ccc2[nH]nc(-c3cnn(C)c3)c2c1)c1c(C(F)F)ccc2ncccc12 (stereo not shown) [Example 127, 6-(difluoromethyl)-5-(1-((3-(1-methyl-1H-pyrazol-4-yl)-1H-indazol-5-yl)oxy)ethyl)quinoline] |  |  | 118
10 |  |  |  |  | CC(Oc1ccc2[nH]nc(-c3cnn(C)c3)c2c1)c1c(CF)ccc2ncccc12 (stereo not shown) [Example 130, 6-(fluoromethyl)-5-(1-((3-(1-methyl-1H-pyrazol-4-yl)-1H-indazol-5-yl)oxy)ethyl)q uinoline] |  |  | 152
11 | < 1 | B (B represents 20 ≤ multiple X<50) | A (A represents 1 ≤ multiple X<20) | C (C represents 50 ≤ multiple X<100) | CC(Oc1ccc2[nH]nc(-c3cnn(C)c3)c2c1)c1cc(Cl)cc2nccnc12 (stereo not shown) [Example 136, 7-chloro-5-(1-((3-(1-methyl-1H-pyrazol-4-yl)-1H-indazol-5-yl)oxy)ethyl)qu inoxaline] |  |  | 119
12 | < 1 | B (B represents 20 ≤ multiple X<50) | A (A represents 1 ≤ multiple X<20) | B (B represents 20 ≤ multiple X<50) | Cc1cc2nccnc2c(C(C)Oc2ccc3[nH]nc(-c4cnn(C)c4)c3c2)n1 (stereo not shown) [Example 183, 7-methyl-5-(1-((3-(1-methyl-1H-pyrazol-4-yl)-1H-indazol-5-yl)oxy)ethyl)pyridino [3,4-b]pyrazine] |  |  | 10.4
13 | < 1 | B (B represents 20 ≤ multiple X<50) | A (A represents 1 ≤ multiple X<20) | B (B represents 20 ≤ multiple X<50) | COCC(=O)N1CC(n2cc(-c3n[nH]c4ccc(OC(C)c5cccc6nccnc56)cc34)cn2)C1 (stereo not shown) [Example 188, 2-methoxy-1-(3-(4-(5-(1-(quinoxalin-5-yl)ethoxy)-1H-indazol-3-yl)-1H-pyrazol-1-yl)azetidin-1-yl)ethan-1-one] |  |  | 70.1
14 | < 1 | B (B represents 20 ≤ multiple X<50) | A (A represents 1 ≤ multiple X<20) | B (B represents 20 ≤ multiple X<50) | CC(Oc1ccc2[nH]nc(-c3cnn(C4CN(C(=O)C(C)(C)O)C4)c3)c2c1)c1cccc2nccnc12 (stereo not shown) [Example 190, 2-hydroxy-2-methyl-1-(3-(4-(5-(1-(quinoxalin-5-yl)ethoxy)-1H-indazol-3-yl)-1H-pyrazol-1-yl)azetidin-1-yl)propan-1-one] |  |  | 81.6
15 | < 1 | B (B represents 20 ≤ multiple X<50) | A (A represents 1 ≤ multiple X<20) | B (B represents 20 ≤ multiple X<50) | CC(=O)N1CC(n2cc(-c3n[nH]c4ccc(OC(C)c5cccc6nccnc56)cc34)cn2)C1 (stereo not shown) [Example 218, 1-(3-(4-(5-(1-(quinoxalin-5-yl)ethoxy)-1H-indazol-3-yl)-1H-pyrazol-1-yl)azetidin-1-yl)ethan-1-one] |  |  | 64.7
16 | < 1 | A (A represents 1 ≤ multiple X<20) |  |  | CC(Oc1cc2c(-c3cnn(C)c3)n[nH]c2cc1F)c1cc(Cl)cc2nccnc12 (stereo not shown) [Example 227, 7-chloro-5-(1-((6-fluoro-3-(1-methyl-1H-pyrazol-4-yl)-1H-indazol-5-yl)oxy)ethyl)qu inoxaline] |  |  | 128
17 | < 1 | A (A represents 1 ≤ multiple X<20) | A (A represents 1 ≤ multiple X<20) | C (C represents 50 ≤ multiple X<100) | CC(Oc1ccc2[nH]nc(-c3cnn(C)c3)c2c1)c1nc(C(F)F)cc2nccnc12 (stereo not shown) [Example 236, 7-(difluoromethyl)-5-(1-((3-(1-methyl-1H-pyrazol-4-yl)-1H-indazol-5-yl)oxy)ethyl)pyridino[3,4-b]pyrazine] |  |  | 38.9

Row | Structure (SMILES) | IC50 [2, 3] [nM] | Selectivity (X) FGFR1/FGFR3 [2] | Selectivity (X) FGFR2/FGFR3 [2] | Selectivity (X) FGFR4/FGFR3 [2] | IC50 ([1]; 72 h) [nM] | IC50 [2] [nM] | IC50 [1, 4] [nM]
18 | Cc1ccc2ncccc2c1C(C)Oc1ccc2[nH]nc(-c3cnn(C)c3)c2c1 (stereo not shown) [Example 95, 6-methyl-5-(1-((3-(1-methyl-1H-pyrazol-4-yl)-1H-indazol-5-yl)oxy)ethyl)quinolinee] |  | C (C represents 50 ≤ multiple X<100) | A (A represents 1 ≤ multiple X<20) | C (C represents 50 ≤ multiple X<100) |  | 1 to 10 | 110
